Data on 14 compounds can be found in patent US20230373939A1 (VERTEX PHARMACEUTICALS INCORPORATED, priority 2020, published 2023).

In one experiment the target is CFTR (Homo sapiens, UniProt P13569). Briefly: Standard Ussing Chamber Assay for CFTR potentiator activity. The class given is cell-based. The protocol:
tert-Butyl N-[(6R,12R)-6-benzyloxy-12-methyl-6,15-bis(trifluoromethyl)-13,19-dioxa-3,4,18-triazatricyclo[12.3.1.12,5]nonadeca-1(18),2,4,14,16-pentaen-17-yl]-N-tert-butoxycarbonyl-carbamate (8.6 g, 11.77 mmol) was dissolved in ethanol (172 mL) then the flask was cycled 3 times between vacuum/nitrogen. Treated the mixture with 10% Pd/C (50% water wet, 1.8 g of 5% w/w, 0.8457 mmol) then cycled 3 times between vacuum/nitrogen and 3 times between vacuum/hydrogen and then stirred vigorously under hydrogen (balloon) at room temperature for 18 h. The mixture was cycled 3 times between vacuum/nitrogen, filtered over Celite washing with ethanol and then the filtrate was evaporated to give 7.3 g of tert-butyl N-tert-butoxycarbonyl-N-[(6R,12R)-6-hydroxy-12-methyl-6,15-bis(trifluoromethyl)-13,19-dioxa-3,4,18-triazatricyclo[12.3.1.12,5]nonadeca-1(18),2,4,14,16-pentaen-17-yl]carbamate an off-white solid. 1H NMR and MS confirmed the expected product. CFTR modulatory activity was confirmed using a standard Ussing Chamber Assay for CFTR potentiator activity.

The next experiment deals with T1, F508del in NIH 3T3 cells (Homo sapiens, UniProt P13569, DEL508-508).
T1 construct: expressed in transfected cells
T1 sequence (P13569 with tags, fused parts or gaps DEL508-508): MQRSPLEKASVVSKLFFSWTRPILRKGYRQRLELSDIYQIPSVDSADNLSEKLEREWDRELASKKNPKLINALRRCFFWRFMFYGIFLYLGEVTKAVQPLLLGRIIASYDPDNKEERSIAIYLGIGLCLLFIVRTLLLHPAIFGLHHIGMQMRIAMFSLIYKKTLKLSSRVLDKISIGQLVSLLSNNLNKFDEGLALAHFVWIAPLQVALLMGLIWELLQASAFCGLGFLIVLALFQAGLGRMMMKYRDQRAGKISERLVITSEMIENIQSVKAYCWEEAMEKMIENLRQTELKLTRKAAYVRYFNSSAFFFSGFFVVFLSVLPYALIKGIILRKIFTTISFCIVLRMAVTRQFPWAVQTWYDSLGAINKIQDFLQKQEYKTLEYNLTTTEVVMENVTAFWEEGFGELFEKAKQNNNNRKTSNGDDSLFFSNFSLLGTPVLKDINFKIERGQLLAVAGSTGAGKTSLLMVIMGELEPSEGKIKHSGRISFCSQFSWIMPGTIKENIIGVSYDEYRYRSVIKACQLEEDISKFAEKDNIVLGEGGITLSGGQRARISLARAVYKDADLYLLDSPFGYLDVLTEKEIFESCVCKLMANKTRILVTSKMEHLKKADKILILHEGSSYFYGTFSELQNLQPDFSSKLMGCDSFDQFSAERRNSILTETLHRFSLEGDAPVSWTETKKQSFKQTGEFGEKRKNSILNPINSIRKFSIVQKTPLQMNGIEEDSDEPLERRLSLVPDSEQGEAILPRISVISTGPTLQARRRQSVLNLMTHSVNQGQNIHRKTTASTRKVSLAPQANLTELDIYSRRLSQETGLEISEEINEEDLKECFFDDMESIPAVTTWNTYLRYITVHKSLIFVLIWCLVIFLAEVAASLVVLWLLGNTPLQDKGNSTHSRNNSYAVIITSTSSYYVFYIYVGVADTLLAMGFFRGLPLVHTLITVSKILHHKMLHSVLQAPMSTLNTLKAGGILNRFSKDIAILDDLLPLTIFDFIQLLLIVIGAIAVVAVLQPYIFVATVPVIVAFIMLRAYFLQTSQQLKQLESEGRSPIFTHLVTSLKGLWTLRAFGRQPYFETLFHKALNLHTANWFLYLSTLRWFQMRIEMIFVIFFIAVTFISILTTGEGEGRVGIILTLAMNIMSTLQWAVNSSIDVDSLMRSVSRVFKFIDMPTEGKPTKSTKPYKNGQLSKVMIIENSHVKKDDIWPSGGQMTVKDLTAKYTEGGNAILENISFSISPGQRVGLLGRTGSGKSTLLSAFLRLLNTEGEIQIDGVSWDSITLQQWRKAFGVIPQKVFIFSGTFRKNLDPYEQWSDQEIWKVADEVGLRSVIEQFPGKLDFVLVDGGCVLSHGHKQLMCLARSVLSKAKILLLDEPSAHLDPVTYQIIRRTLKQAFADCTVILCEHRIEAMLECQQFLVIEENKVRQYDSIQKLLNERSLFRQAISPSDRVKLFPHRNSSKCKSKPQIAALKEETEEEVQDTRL
Briefly: 3T3 assay: membrane potential optical assay for F508del correction. The class given is cell-based. As to conditions: NIH 3T3 cells, F508del; for Emax: NIH3T3, read-out: 3T3 Max Activity (%); for EC50: read-out: 3T3 EC50. The method, boiled down:
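NIH 3T3 mouse fibroblasts stably expressing F508del were incubated with corrector compounds at a range of concentrations for 16–24 h at 37 °C, then loaded with a voltage-sensing redistribution dye. Channel activity was read as membrane-potential change on FLIPR after a single addition of forskolin with a chloride-free (gluconate) bath creating a Cl⁻ gradient.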

Structures are written as SMILES.

Sequence of CFTR (P13569 whole entry, species assumed): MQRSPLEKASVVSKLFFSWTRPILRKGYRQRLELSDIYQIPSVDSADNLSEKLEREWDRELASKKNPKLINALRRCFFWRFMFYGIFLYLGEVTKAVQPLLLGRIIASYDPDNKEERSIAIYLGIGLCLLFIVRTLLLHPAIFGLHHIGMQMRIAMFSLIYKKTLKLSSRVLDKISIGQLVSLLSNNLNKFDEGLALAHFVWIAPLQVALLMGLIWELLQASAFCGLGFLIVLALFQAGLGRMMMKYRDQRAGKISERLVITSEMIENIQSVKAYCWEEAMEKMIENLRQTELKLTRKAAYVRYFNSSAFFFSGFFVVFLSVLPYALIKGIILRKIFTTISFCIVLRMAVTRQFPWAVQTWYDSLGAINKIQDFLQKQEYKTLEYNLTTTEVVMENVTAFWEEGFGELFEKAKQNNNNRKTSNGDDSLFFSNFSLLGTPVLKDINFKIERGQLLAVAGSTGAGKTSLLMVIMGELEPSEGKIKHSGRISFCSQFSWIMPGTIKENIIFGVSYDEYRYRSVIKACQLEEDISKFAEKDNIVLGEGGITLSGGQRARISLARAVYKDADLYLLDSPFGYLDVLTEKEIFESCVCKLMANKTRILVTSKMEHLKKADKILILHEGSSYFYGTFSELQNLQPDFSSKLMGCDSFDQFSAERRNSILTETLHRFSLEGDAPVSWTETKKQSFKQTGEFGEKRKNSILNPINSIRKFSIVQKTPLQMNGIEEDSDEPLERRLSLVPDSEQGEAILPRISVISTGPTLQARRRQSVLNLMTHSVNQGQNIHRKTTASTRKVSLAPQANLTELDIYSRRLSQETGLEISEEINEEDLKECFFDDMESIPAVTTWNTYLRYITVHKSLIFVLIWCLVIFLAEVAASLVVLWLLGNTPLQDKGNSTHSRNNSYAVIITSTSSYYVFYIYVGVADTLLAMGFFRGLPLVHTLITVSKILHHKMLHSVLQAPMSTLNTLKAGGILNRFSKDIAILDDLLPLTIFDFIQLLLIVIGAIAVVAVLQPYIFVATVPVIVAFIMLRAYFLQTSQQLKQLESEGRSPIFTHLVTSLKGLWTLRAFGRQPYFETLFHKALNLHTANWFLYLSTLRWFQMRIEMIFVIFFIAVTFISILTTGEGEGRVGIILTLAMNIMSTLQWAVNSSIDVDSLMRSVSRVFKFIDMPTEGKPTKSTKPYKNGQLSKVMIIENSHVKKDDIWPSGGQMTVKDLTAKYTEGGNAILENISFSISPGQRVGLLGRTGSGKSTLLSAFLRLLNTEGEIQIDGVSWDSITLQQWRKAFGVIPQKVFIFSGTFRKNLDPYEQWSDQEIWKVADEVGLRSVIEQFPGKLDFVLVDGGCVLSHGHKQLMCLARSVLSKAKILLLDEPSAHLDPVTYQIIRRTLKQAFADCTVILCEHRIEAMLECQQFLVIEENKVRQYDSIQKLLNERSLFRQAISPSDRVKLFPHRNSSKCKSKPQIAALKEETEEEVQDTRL

Take `C[C@@H]1CCCCC[C@](O)(C(F)(F)F)C2=NN=C(O2)c2nc(c(C(F)(F)F)cc2N)O1` [(6R,12R)-17-Amino-12-methyl-6,15-bis(trifluoromethyl)-13,19-dioxa-3,4,18-triazatricyclo[12.3.1.12,5]nonadeca-1(18),2,4,14,16-pentaen-6-ol]: the “CFTR modulatory activity (CFTR potentiator activity)” value at CFTR is recorded as “confirmed”.
As for `Cc1ccc(-c2cc(NS(=O)(=O)c3ccccc3)nc(-c3ccc(C)cc3)c2)cc1` [Compound 143, N-[4,6-bis(p-tolyl)-2-pyridyl]benzenesulfonamide], at F508del in NIH 3T3 cells, the Emax is over 60% and the EC50 (commonly the concentration that produces a half-maximal response) is 1 to 3 µM.
For the compound `Cc1ccc(-c2ccc(NS(=O)(=O)c3ccccc3)nc2-c2ccc(C)cc2)cc1` [Compound 144, N-[5,6-bis(p-tolyl)-2-pyridyl]benzenesulfonamide], at F508del in NIH 3T3 cells, the Emax is over 60% and the concentration giving a half-maximal response (EC50) is 1 to 3 µM.
Take `C/C=C/c1ccc(NS(=O)(=O)c2ccccc2)nc1-c1ccc(C)cc1` [Compound 148]: at F508del in NIH 3T3 cells, the Emax is over 60% and the EC50 is 1 to 3 µM.
For `Cc1cc(C)cc(-c2nc(NS(=O)(=O)c3ccccc3)ccc2C)c1` [Compound 149], in that order: over 60% and 3 to 30 µM.
For `Cc1ccc(-c2nc(NS(=O)(=O)c3ccccc3)ccc2C)c(C)c1` [Compound 150], in that order: over 60% and 1 to 3 µM.
For `Cc1cc(C)cc(-c2cc(C)cc(NS(=O)(=O)c3ccccc3)n2)c1` [Compound 151], on F508del in NIH 3T3 cells, the Emax lay within 30 to 60% and the half-maximal effective concentration (EC50) lay in the range of 3 to 30 µM.
Consider `Cc1cc(NS(=O)(=O)c2ccccc2)nc(-c2ccc(C)cc2C)c1` [Compound 152], for which, at F508del in NIH 3T3 cells, the Emax is over 60% and the EC50 was 3 to 30 µM.
On to `Cc1cc(NS(=O)(=O)c2ccccc2)nc(-c2ccc(C)c(C)c2)c1` [Compound 153], for which, on F508del in NIH 3T3 cells, the Emax is over 60% and the EC50 was 3 to 30 µM.
As for `Cc1cc(NS(=O)(=O)c2ccccc2)nc(-c2cccc(C)c2C)c1` [Compound 154], at F508del in NIH 3T3 cells, the Emax is over 60% and the EC50 is 3 to 30 µM.
For the compound `Cc1cc(C)cc(-c2nc(NS(=O)(=O)c3ccccc3)cc(C)c2C)c1` [Compound 155], at F508del in NIH 3T3 cells, the Emax was over 60% and the EC50 is 1 to 3 µM.
With `Cc1ccc(-c2nc(NS(=O)(=O)c3ccccc3)cc(C)c2C)c(C)c1` [Compound 156], on F508del in NIH 3T3 cells, the Emax was over 60% and the EC50 lay in the range of 3 to 30 µM.
For `Cc1ccc(-c2nc(NS(=O)(=O)c3ccccc3)cc(C)c2C)cc1C` [Compound 157], in that order: over 60% and 1 to 3 µM.
For `Cc1cccc(-c2nc(NS(=O)(=O)c3ccccc3)cc(C)c2C)c1C` [Compound 158], in that order: over 60% and 3 to 30 µM.
